{
  "source": "patent US7282507B2",
  "about": "“Indole derivatives as selective androgen receptor modulators (SARMS)” (Janssen Pharmaceutica N.V., priority 2004, dated 2007)",
  "data": [
    {"system": "testosterone-enhanced ventral prostate and seminal vesicle weights", "test": "Ventral Prostate and Seminal Vesicle Weight in vivo Assay; further: key: 'active' if the non weight adjusted prostate weight was ≦40 mg or the % Inhibition prostate weight, body weight adjusted was ≧40% @ 2 mg/day dosage; ID50's, if determined, of ≦15 mg/day also indicated an 'active' compound; listed herein as 'inactive' as they did not meet the specified criteria defined above", "design": "species or system rat", "conditions": "immature castrated male Sprague Dawley rats, once daily for five days, usually orally 40 mg/kg, with testosterone propionate 2 mg/kg s.c.", "method": "Immature (approximately 50 g) castrated male Sprague Dawley rats (Charles River) were treated once daily for five days with test compound (usually given orally at 40 mg/kg in a volume of 0.3 mL, in 30% cyclodextrin or 0.5% methylcellulose vehicle) and with testosterone propionate (given subcutaneously by injection at the nape of the neck at 2 mg/kg, in a volume of 0.1 mL in sesame oil). On the sixth day, the rats were euthanized by asphyxiation in carbon dioxide. Ventral prosatates and seminal vesicles were removed and their wet weights determined.\nA test compound was said to be “active” if the non weight adjusted prostate weight was ≦40 mg or the % Inhibition prostate weight, body weight adjusted was ≧40% @ 2 mg/day dosage.", "values": [
      {"smiles": "CCSCC(O)c1[nH]c2cc(C(F)(F)F)c(C#N)cc2c1I", "note": "(racemic) [Compound 411]", "active / inactive: inhibition of testosterone-enhanced prostate weight": "inactive"},
      {"smiles": "CC(C)(O)c1[nH]c2cc(C(F)(F)F)c(C#N)cc2c1I", "note": "[Compound 278]", "active / inactive: inhibition of testosterone-enhanced prostate weight": "active"},
      {"smiles": "CCSCC(C)(O)c1cc2cc(C#N)ncc2[nH]1", "note": "(centres unmarked) [Compound 7]", "active / inactive: inhibition of testosterone-enhanced prostate weight": "inactive"},
      {"smiles": "CCSCC(O)(CSCC)c1cc2cc([N+](=O)[O-])c(C(F)(F)F)cc2[nH]1", "note": "[Compound 13]", "active / inactive: inhibition of testosterone-enhanced prostate weight": "inactive"},
      {"smiles": "CCSCC(C)(O)c1[nH]c2cc(C(F)(F)F)c([N+](=O)[O-])cc2c1I", "note": "(single isomer, unassigned) [Compound 241]", "active / inactive: inhibition of testosterone-enhanced prostate weight": "inactive"},
      {"smiles": "CSCC(O)c1cc2cc(C#N)c(C(F)(F)F)cc2[nH]1", "note": "(racemic) [Compound 408]", "active / inactive: inhibition of testosterone-enhanced prostate weight": "inactive"},
      {"smiles": "C#Cc1c(C(C)(O)CSCC)[nH]c2cc(C(F)(F)F)c(C#N)cc12", "note": "(racemic) [Compound 326]", "active / inactive: inhibition of testosterone-enhanced prostate weight": "inactive"},
      {"smiles": "CCS(=O)(=O)CC(O)c1cc2cc(C#N)c(C(F)(F)F)cc2[nH]1", "note": "(racemic) [Compound 412]", "active / inactive: inhibition of testosterone-enhanced prostate weight": "inactive"},
      {"smiles": "CCSCC(C)(O)c1[nH]c2cc(C(F)(F)F)c(C#N)cc2c1C#C[Si](C)(C)C", "note": "(racemic) [Compound 325]", "active / inactive: inhibition of testosterone-enhanced prostate weight": "inactive"},
      {"smiles": "CCS(=O)(=O)CC(C)(O)c1cc2cc(C#N)c(C(F)(F)F)cc2[nH]1", "note": "(racemic) [Compound 407]", "active / inactive: inhibition of testosterone-enhanced prostate weight": "inactive"},
      {"smiles": "CC(O)(COc1ccc(C#N)c(C(F)(F)F)c1)c1cc2cc(C#N)c(C(F)(F)F)cc2[nH]1", "note": "(centres unmarked) [Compound 429, 2-[2-(4-Cyano-3-trifluoromethyl-phenoxy)-1-hydroxy-1-methyl-ethyl]-6-trifluoromethyl-1H-indole-5-carbonitrile]", "active / inactive: inhibition of testosterone-enhanced prostate weight": "inactive"},
      {"smiles": "CCSCC(C)(O)c1cc2cc(C)c(C(F)(F)F)cc2[nH]1", "note": "(racemic) [Compound 414]", "active / inactive: inhibition of testosterone-enhanced prostate weight": "inactive"},
      {"smiles": "CC(O)(c1cc2cc(C#N)c(C(F)(F)F)cc2[nH]1)C(F)(F)F", "note": "(centres unmarked) [Compound 334, 2-(2,2,2-Trifluoro-1-hydroxy-1-methyl-ethyl)-6-trifluoromethyl-1H-indole-5-carbonitrile]", "active / inactive: inhibition of testosterone-enhanced prostate weight": "active"},
      {"smiles": "CCSCC(C)(O)c1[nH]c2cc(C(F)(F)F)c(C#N)cc2c1I", "note": "(racemic) [Compound 324]", "active / inactive: inhibition of testosterone-enhanced prostate weight": "inactive"},
      {"smiles": "CC(O)(c1cc2cc(C#N)c(C(F)(F)F)cc2[nH]1)C(F)(F)F", "note": "(centres unmarked) [Compound 329, 2-(2,2,2-Trifluoro-1-hydroxy-1-methyl-ethyl)-6-trifluoromethyl-1H-indole-5-carbonitrile]", "active / inactive: inhibition of testosterone-enhanced prostate weight": "active"},
      {"smiles": "CC(C)(O[Si](C)(C)C)c1cc2cc([N+](=O)[O-])c(C(F)(F)F)cc2n1S(C)(=O)=O", "note": "[Compound 269]", "active / inactive: inhibition of testosterone-enhanced prostate weight": "inactive"},
      {"smiles": "CCSCC(C)(O)c1cc2cc([N+](=O)[O-])c(C(F)(F)F)cc2o1", "note": "(racemic) [Compound 9]", "active / inactive: inhibition of testosterone-enhanced prostate weight": "inactive"},
      {"smiles": "CC(C)(O)c1[nH]c2cc(C(F)(F)F)c(Cl)cc2c1I", "note": "[Compound 279]", "active / inactive: inhibition of testosterone-enhanced prostate weight": "inactive"},
      {"smiles": "CCSCC(C)(O)c1cc2cc(C#N)c(C)c(I)c2[nH]1", "note": "(racemic) [Compound 415]", "active / inactive: inhibition of testosterone-enhanced prostate weight": "inactive"},
      {"smiles": "CC(C)(O)c1cc2cc(Cl)c(C(F)(F)F)cc2n1S(C)(=O)=O", "note": "[Compound 284]", "active / inactive: inhibition of testosterone-enhanced prostate weight": "active"},
      {"smiles": "CC(C)(O[Si](C)(C)C)c1cc2cc(Cl)c(C(F)(F)F)cc2n1S(C)(=O)=O", "note": "[Compound 270]", "active / inactive: inhibition of testosterone-enhanced prostate weight": "inactive"},
      {"smiles": "CCSCC(O)c1cc2cc(C#N)c(C(F)(F)F)cc2[nH]1", "note": "(racemic) [Compound 410]", "active / inactive: inhibition of testosterone-enhanced prostate weight": "inactive"},
      {"smiles": "CCSCC(C)(O)c1cc2cc(N)c(C(F)(F)F)cc2[nH]1", "note": "(centres unmarked) [Compound 166]", "active / inactive: inhibition of testosterone-enhanced prostate weight": "inactive"},
      {"smiles": "CCS(=O)(=O)CC(C)(O)c1cc2cc([N+](=O)[O-])c(C(F)(F)F)cc2n1C", "note": "(single isomer, unassigned) [Compound 232]", "active / inactive: inhibition of testosterone-enhanced prostate weight": "active"},
      {"smiles": "CC(O)(c1[nH]c2cc(C(F)(F)F)c(C#N)cc2c1Cl)C(F)(F)F", "note": "(single isomer, unassigned) [Compound 345]", "active / inactive: inhibition of testosterone-enhanced prostate weight": "active"},
      {"smiles": "N#Cc1cc2cc(C3(O)CCSC3)[nH]c2cc1C(F)(F)F", "note": "(racemic) [Compound 15]", "active / inactive: inhibition of testosterone-enhanced prostate weight": "inactive"},
      {"smiles": "CC(C)(O)c1[nH]c2cc(C(F)(F)F)c([N+](=O)[O-])cc2c1I", "note": "[Compound 276]", "active / inactive: inhibition of testosterone-enhanced prostate weight": "active"},
      {"smiles": "CC(C)(O)c1cc2cc(Br)ccc2[nH]1", "note": "[Compound 294]", "active / inactive: inhibition of testosterone-enhanced prostate weight": "inactive"},
      {"smiles": "CCS(=O)(=O)CC(C)(O)c1cc2cc(C#N)c(C(F)(F)F)cc2[nH]1", "note": "(single isomer, unassigned) [Compound 397]", "active / inactive: inhibition of testosterone-enhanced prostate weight": "inactive"},
      {"smiles": "CC(C)(O)c1[nH]c2cc(C(F)(F)F)c(Cl)cc2c1Cl", "note": "[Compound 282]", "active / inactive: inhibition of testosterone-enhanced prostate weight": "inactive"},
      {"smiles": "CCSCC(C)(O)c1cc2cc(C#N)c(OC)cc2[nH]1", "note": "(racemic) [Compound 445]", "active / inactive: inhibition of testosterone-enhanced prostate weight": "inactive"},
      {"smiles": "CC(C)(O)c1cc2cc(Cl)c(Cl)cc2[nH]1", "note": "[Compound 405]", "active / inactive: inhibition of testosterone-enhanced prostate weight": "inactive"},
      {"smiles": "CC(C)(O)c1cc2cc([N+](=O)[O-])c(C(F)(F)F)cc2n1S(C)(=O)=O", "note": "[Compound 273]", "active / inactive: inhibition of testosterone-enhanced prostate weight": "inactive"},
      {"smiles": "CCSCC(C)(O)c1cc2cc(C#N)c(C(F)(F)F)cc2n1CC", "note": "(racemic) [Compound 243]", "active / inactive: inhibition of testosterone-enhanced prostate weight": "active"},
      {"smiles": "COCn1c(C(C)(O)C(F)(F)F)cc2cc(C#N)c(C(F)(F)F)cc21", "note": "(racemic) [Compound 332]", "active / inactive: inhibition of testosterone-enhanced prostate weight": "active"},
      {"smiles": "O=[N+]([O-])c1cc2cc(C3(O)CCSC3)[nH]c2cc1C(F)(F)F", "note": "(racemic) [Compound 18]", "active / inactive: inhibition of testosterone-enhanced prostate weight": "inactive"}
    ]},
    {"target": "T1, androgen receptor (AdEasy+rAR, L929 cells) (Rattus norvegicus, UniProt P15207)", "T1 construct": "expressed in transfected cells; host or cells: L929 cells transduced with adenovirus AdEasy+rAR", "T1 sequence (P15207 1-902)": "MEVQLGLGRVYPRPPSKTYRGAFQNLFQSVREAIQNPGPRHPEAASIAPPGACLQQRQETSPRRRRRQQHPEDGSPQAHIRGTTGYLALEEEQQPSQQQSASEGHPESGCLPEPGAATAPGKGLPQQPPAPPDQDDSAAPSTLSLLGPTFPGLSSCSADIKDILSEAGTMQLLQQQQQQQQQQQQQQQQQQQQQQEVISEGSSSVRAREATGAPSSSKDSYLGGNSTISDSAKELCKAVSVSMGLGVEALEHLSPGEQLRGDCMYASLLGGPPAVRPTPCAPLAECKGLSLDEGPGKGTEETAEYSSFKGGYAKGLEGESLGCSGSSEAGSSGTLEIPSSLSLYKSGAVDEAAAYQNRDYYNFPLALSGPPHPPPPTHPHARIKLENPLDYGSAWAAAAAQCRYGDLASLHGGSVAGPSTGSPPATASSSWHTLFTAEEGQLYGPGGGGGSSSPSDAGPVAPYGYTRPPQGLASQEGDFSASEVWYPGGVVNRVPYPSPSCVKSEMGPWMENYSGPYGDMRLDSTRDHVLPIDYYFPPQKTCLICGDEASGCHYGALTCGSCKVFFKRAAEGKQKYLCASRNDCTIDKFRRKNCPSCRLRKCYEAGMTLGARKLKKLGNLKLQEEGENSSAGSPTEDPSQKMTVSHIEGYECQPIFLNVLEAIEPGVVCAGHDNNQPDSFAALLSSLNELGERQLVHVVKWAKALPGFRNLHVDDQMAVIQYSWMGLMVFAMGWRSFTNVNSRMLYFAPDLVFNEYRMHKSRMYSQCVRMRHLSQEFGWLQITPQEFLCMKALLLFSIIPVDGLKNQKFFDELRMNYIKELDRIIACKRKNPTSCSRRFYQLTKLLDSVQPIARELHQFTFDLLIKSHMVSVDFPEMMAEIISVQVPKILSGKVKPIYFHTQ", "test": "L929 Androgen Receptor Functional Assay, Adenovirus Transduction", "assay_type": "cell-based", "conditions": "agonist testing, 3000 nM", "method": "L929 cells were plated in 96-well plates at 20,000 cells per well, in DMEM/F12 (GIBCO) containing 10% (v/v) charcoal-treated fetal bovine serum (Hyclone) and lacking phenol red. The plates were then incubated overnight at 37° C. in 5% (v/v) humidified CO2.\nTest compound dilutions were prepared in 100% (v/v) DMSO, if necessary. Each dilution was made to 1250× the final desired assay concentration.\nFirst, 2 mL of DMEM/F12 lacking phenol red was pipetted into the wells of a 2-mL 96-well assay block. Next, 4 μL of the 1250× test compound dilutions were pipetted into each well of the assay block. The mixtures within the well were then carefully mixed by pipette.\nIn a 15 mL or 50 mL sterile centrifuge tube, a 2.5 nM (2.5×) dilution of R1881 (methyl-trienolone) in DMEM/F12 lacking phenol red was prepared.\nIn a second 15 mL or 50 mL centrifuge tube a solution containing an equal volume of DMEM to the first and an equal volume of 100% (v/v) DMSO to the volume of R1881 used in the first tube was prepared.\nIn a 15 mL or 50 mL sterile centrifuge tube, a dilution in DMEM/F12 of the adenovirus AdEasy+rAR at an moi of 1:500 per well was prepared.\nThe medium was removed from the 96-well plates by inversion and dried, inverted, very briefly. As soon as possible after medium removal, 40 μL of the diluted unlabeled test compound was added to each well, in duplicate. To each well designated for antagonist testing was added 40 μL of the 2.5 nM R1881 dilution to the wells for antagonist testing. To each well designated for agonist testing was added 40 μL of the DMSO dilution. Then 20 μL of the diluted adenovirus were added to all wells. The plates were incubated for 48 hours at 37° C. in 5% (v/v) humidified CO2.\nTo each well was added 100 μL of Steady-Glo luciferase assay substrate (Promega) and the plates were placed on a rotary shaker for 1 min. The plates were then incubated at room temperature in the dark for one hour. The contents of each well were then transferred to a white microtiter plate (Packard) and read on a Luminoskan Ascent (Thermo Lab Systems).\nL929 AR percent activity was determined by testing dilutions of the test compound using a concentration of 3000 nM unless otherwise noted. L929 percent inhibition was determined by testing dilutions of the test compound using a concentration of 3000 nM. […] Luciferase activity per well were measured and EC50s and IC50s determined by linear regression.", "units": {"% Activity, L929 androgen receptor functional assay": "%"}, "values": [
      {"smiles": "CC(O)(CSCC(F)(F)F)c1cc2cc(C#N)c(C(F)(F)F)cc2[nH]1", "note": "(racemic) [Compound 211]", "% Activity, L929 androgen receptor functional assay": "−1"},
      {"smiles": "CC(O)(CSc1ccc(N)cc1)c1cc2cc(Cl)c(C(F)(F)F)cc2n1S(C)(=O)=O", "note": "(racemic) [Compound 125]", "% Activity, L929 androgen receptor functional assay": "−5"}
    ]}
  ]
}
